Experimental data taken from patent US20110046223A1, “TREATMENT OF NEUROFIBROMATOSIS” (RAMOT AT TEL-AVIV UNIVERSITY LTD., priority 2006, published 2011).

Experiments:
non-NF-1 STS26T cells = test: actin stress fibers, rhodamine-phalloidin confocal microscopy; type: cell-based, human; conditions: 75 μM FTS, mean±SD, n=3, P<0.05
Experimental: (§1) The human NF-1 MPNST cell lines ST88-14, T265P21 and 90-8 and the non-NF-1 human MPNST cell line STS26T were obtained from Dr. Nancy Ratner. T265P21, 90-8, and ST88-14 cells were maintained in RPMI/15% fetal calf serum (FCS) medium and STS26T cells were maintained in DMEM/10% FCS, as described in Weisz, B., et al., supra. Cells were plated at a density of 1×10^6 cells per 10-cm plate for biochemical and immunoblotting assays, 2.5×10^3 cells/well in 24-well plates for cell-growth assays, or on glass cover slips (5×10^4 cells per 35-mm dish) for labeling of actin cytoskeletal elements. […]
(§2) Unless otherwise indicated, cells were lysed 48 hours after being treated with lysis buffer, as described in Haklai, et al., supra. […] Protein bands were visualized by ECL and quantified by densitometry with Image Master VDS-CL (Amersham) using TINA 2.0 software (Ray Tests). To obtain reliable comparisons between replicated experiments for statistical analysis, a standardization procedure was used, in which the density of each given protein band as recorded with its specific Ab, was normalized. […] The standard average density was defined as 1.0, and each of the individually determined bands was related to this value. […]

[1] = system: NF-1 cell lines T265P21, ST88-14, and 90-8; test: as above; type: cell-based, human; conditions: T265P21, ST88-14, and 90-8, 75 μM FTS; controls 82%-87%
Experimental: as §1, §2

ST88-14 cells = test: ST88-14 tumor growth in nude mice; type: in vivo, nude CD1-Nu male mice; conditions: six weeks
Experimental: ST88-14 cells (5×10^6) in Matrigel were implanted subcutaneously (s.c.) just above the right femoral joint of nude CD1-Nu male mice (6 weeks old). Two weeks later palpable tumors were observed and the mice were separated randomly into vehicle-treated control and FTS-treated groups. Two types of treatment protocols were used. (1) The first protocol was intraperitoneal (i.p.) administration (0.1 mL) of vehicle, 1 mg/kg, 5 mg/kg or 10 mg/kg FTS (n=6 per group). The FTS solution was prepared in saline containing phosphate buffer as described in Haklai, et al., supra. (2) The second protocol was oral administration of FTS. Mice received vehicle or 20, 40, 60, or 80 mg/kg FTS (n=10 per group). The FTS mixture for oral administration was prepared in PBS/0.5% carboxymethyl cellulose. Mice were sacrificed 6 weeks after the start of the treatment, and tumors were removed and weighed. Student's t-test was used for data analysis.
[Ozerdem, U., Angiogenesis 7:307-11 (2004)]. Thus, to determine whether FTS inhibited tumor growth in the nude mouse model, two types of treatments were preformed. The first was i.p. administration of 1, 5, or 10 mg/kg FTS, as earlier described. [Weisz, B., et al., supra.]. The second was oral administration, which required higher FTS doses of 20, 40, 60, and 80 mg/kg. Six weeks after the treatment the mice were sacrificed and tumors were removed and weighed.

[2] = system: ST88-14, 90-8, T265P21 and non-NF-1 STS26T cells; test: cell growth, photomicrographs of control and FTS-treated cells; type: cell-based, human; conditions: 50 μM FTS, two days
Experimental: The human NF-1 MPNST cell lines ST88-14, T265P21 and 90-8 and the non-NF-1 human MPNST cell line STS26T were obtained from Dr. Nancy Ratner. T265P21, 90-8, and ST88-14 cells were maintained in RPMI/15% fetal calf serum (FCS) medium and STS26T cells were maintained in DMEM/10% FCS, as described in Weisz, B., et al., supra. Cells were plated at a density of 1×10^6 cells per 10-cm plate for biochemical and immunoblotting assays, 2.5×10^3 cells/well in 24-well plates for cell-growth assays, or on glass cover slips (5×10^4 cells per 35-mm dish) for labeling of actin cytoskeletal elements. The cells were incubated for 24 hours, treated with the indicated concentration of FTS or with the vehicle (0.1% DMSO) (control) for the times specified in each of the experiments, and then subjected to the various assays as described below. The effect of FTS on cell growth was estimated by direct counting of cells collected from each well, as described in Weisz, B., et al., supra.
To determine the effects of the Ras inhibitor FTS on the growth rates of the NF-1 cell lines ST88-14, 90-8, T265P21 and the non-NF-1 STS26T cells, the cells were grown for two days in the absence and in the presence of 50 μM FTS, and then photomicrographed. […] Additionally, cells were grown for three days and then detached, collected, and counted as described in Methods to determine dose-dependent inhibition by FTS.

`CC(C)=CCC/C(C)=C/CC/C(C)=C/CSc1ccccc1C(=O)O` [FTS, S-farnesylthiosalicylic acid] was tested, and the “increase in stress-fiber formation” value (non-NF-1 STS26T cells) was 27%±11.9%, the “cells with stress fibers after FTS, relative to total cell number” value [1] was 11%-20% and the “inhibition of tumor growth (tumor weight)” value (ST88-14 cells; i.p., 10 mg/kg FTS, P<0.05) was 49%. For the same compound, the “tumor growth, dose dependence” value (ST88-14 cells; i.p., 1, 5, or 10 mg/kg FTS) was “dose-dependent inhibition of tumor growth”, the “inhibition of tumor growth (tumor weight)” value (ST88-14 cells; oral, 80 mg/kg FTS, P<0.01) was 58% and the “tumor growth, dose dependence” value (ST88-14 cells; oral, 20, 40, 60, and 80 mg/kg FTS) was “dose-dependent inhibition of tumor growth”. For the same compound, the cell death [2] was “no significant cell death” and the “cell number (photomicrographs)” value [2] was “drug-induced reduction in cell number”.
